Measurements as given in patent US8507251B2, “Medium and method for culturing Mycobacterium avium subspecies paratuberculosis” (priority 2009, dated 2013).

Tests used:
[1] = test system: bacteria (including M. phlei) and fungal growth; conditions: 100-250 μg/ml; cited from earlier work
single MAP strain = conditions: cited from earlier work
MAP ATCC 19698 = test: radiometric 14CO2 BACTEC 460 growth culture, MAP 19698; format: cell-based, Mycobacterium avium subspecies paratuberculosis
[2] = test system: MAP strain Dominic (ATCC 43545); test: radiometric 14CO2 BACTEC 460 growth culture, MAP Dominic; format: cell-based, Mycobacterium avium subspecies paratuberculosis
MAP strain UCF-4 = test: radiometric 14CO2 BACTEC 460 growth culture, MAP UCF-4; format: cell-based, Mycobacterium avium subspecies paratuberculosis
M. avium 101 = test: radiometric 14CO2 BACTEC 460 growth culture, M. avium 101; format: cell-based, M. avium subspecies avium
[3] = test system: M. tuberculosis, M. Kansasii, M. scrofulaceum, M. avium and M. intracellulare; conditions: 5 mg/ml; cited from earlier work
M. avium ATCC 25291 = test: radiometric 14CO2 BACTEC 460 growth culture, M. avium 25291; format: cell-based, M. avium subspecies avium
[4] = test system: eight mycobacterial strains
MAP 303 = test: radiometric 14CO2 BACTEC 460 growth culture, MAP 303; format: cell-based, Mycobacterium avium subspecies paratuberculosis

**Q.** Which “effect on growth (in words)” value [1] does the source give for `CN1CCCC1c1cccnc1` (stereo not drawn) [Nicotine, nicotine, reference compound] here?
**A.** Its value is “inhibition”.

**Q.** What about the “effect on MAP growth (in words)” value (single MAP strain; 2 μg/ml, BACTEC 460 with OADC supplementation) of the same molecule?
**A.** Its value is “Bactericidal inhibition”.

**Q.** What about the “effect on MAP growth in culture (in words)” value (single MAP strain; solitary MAP strain, pure nicotine) of the same molecule?
**A.** The value was “inhibited MAP growth”.

**Q.** What about the “percent change from control cGI (% ΔcGI / % −ΔcGI)” value (from here on “percent change … (% ΔcGI / % −ΔcGI)”) (MAP ATCC 19698; 1 μg/ml) of the same molecule?
**A.** Its value is −20%.

**Q.** What about the “percent change … (% ΔcGI / % −ΔcGI)” value (MAP ATCC 19698; 4 μg/ml) of the same molecule?
**A.** The value was −20%.

**Q.** What about the “percent change … (% ΔcGI / % −ΔcGI)” value (MAP ATCC 19698; 16 μg/ml) of the same molecule?
**A.** The value was −21%.

**Q.** What about the “percent change … (% ΔcGI / % −ΔcGI)” value (MAP ATCC 19698; 64 μg/ml) of the same molecule?
**A.** Its value is −11%.

**Q.** And the “percent change … (% ΔcGI / % −ΔcGI)” value ([2]; 1 μg/ml, first of the two values (two experiments))?
**A.** The value was −2%.

**Q.** And the “percent change … (% ΔcGI / % −ΔcGI)” value ([2]; 1 μg/ml, second of the two values (two experiments))?
**A.** Its value is 0%.

**Q.** What about the “percent change … (% ΔcGI / % −ΔcGI)” value ([2]; 4 μg/ml, first of the two values (two experiments)) of the same molecule?
**A.** Its value is 29%.

**Q.** And the “percent change … (% ΔcGI / % −ΔcGI)” value ([2]; 4 μg/ml, second of the two values (two experiments))?
**A.** The value was 30%.

**Q.** And the “percent change … (% ΔcGI / % −ΔcGI)” value ([2]; 16 μg/ml, first of the two values (two experiments))?
**A.** Its value is 1%.

**Q.** And the “percent change … (% ΔcGI / % −ΔcGI)” value ([2]; 16 μg/ml, second of the two values (two experiments))?
**A.** The value was 6%.

**Q.** And the “percent change … (% ΔcGI / % −ΔcGI)” value ([2]; 64 μg/ml, first of the two values (two experiments))?
**A.** The value was −12%.

**Q.** And the “percent change … (% ΔcGI / % −ΔcGI)” value ([2]; 64 μg/ml, second of the two values (two experiments))?
**A.** The value was 7%.

**Q.** What about the “percent change … (% ΔcGI / % −ΔcGI)” value (MAP strain UCF-4; 1 μg/ml) of the same molecule?
**A.** The value was −10%.

**Q.** What about the “percent change … (% ΔcGI / % −ΔcGI)” value (MAP strain UCF-4; 4 μg/ml) of the same molecule?
**A.** Its value is −10%.

**Q.** And the “percent change … (% ΔcGI / % −ΔcGI)” value (MAP strain UCF-4; 16 μg/ml)?
**A.** The value was −6%.

**Q.** And the “percent change … (% ΔcGI / % −ΔcGI)” value (MAP strain UCF-4; 64 μg/ml)?
**A.** The value was 9%.

**Q.** What about the “percent change … (% ΔcGI / % −ΔcGI)” value (M. avium 101; 1 μg/ml) of the same molecule?
**A.** The value was 55%.

**Q.** And the “percent change … (% ΔcGI / % −ΔcGI)” value (M. avium 101; 4 μg/ml)?
**A.** Its value is 0%.

**Q.** And the “percent change … (% ΔcGI / % −ΔcGI)” value (M. avium 101; 16 μg/ml)?
**A.** Its value is 15%.

**Q.** What about the “percent change … (% ΔcGI / % −ΔcGI)” value (M. avium 101; 64 μg/ml) of the same molecule?
**A.** The value was 5%.

**Q.** What about the “effect on growth (in words)” value [3] of the same molecule?
**A.** The value was “Enhanced growth”.

**Q.** And the “percent change … (% ΔcGI / % −ΔcGI)” value (M. avium ATCC 25291; 1 μg/ml)?
**A.** Its value is 106%.

**Q.** And the “percent change … (% ΔcGI / % −ΔcGI)” value (M. avium ATCC 25291; 4 μg/ml)?
**A.** Its value is 63%.

**Q.** What about the “percent change … (% ΔcGI / % −ΔcGI)” value (M. avium ATCC 25291; 16 μg/ml) of the same molecule?
**A.** The value was 143%.

**Q.** What about the “percent change … (% ΔcGI / % −ΔcGI)” value (M. avium ATCC 25291; 64 μg/ml) of the same molecule?
**A.** Its value is 112%.

**Q.** And the “effect on growth (in words)” value [4]?
**A.** The value was “no effect on growth”.

**Q.** What about the “percent change … (% ΔcGI / % −ΔcGI)” value (MAP 303; 1 μg/ml) of the same molecule?
**A.** Its value is 7%.

**Q.** What about the “percent change … (% ΔcGI / % −ΔcGI)” value (MAP 303; 4 μg/ml) of the same molecule?
**A.** The value was 8%.

**Q.** What about the “percent change … (% ΔcGI / % −ΔcGI)” value (MAP 303; 16 μg/ml) of the same molecule?
**A.** The value was −22%.

**Q.** What about the “percent change … (% ΔcGI / % −ΔcGI)” value (MAP 303; 64 μg/ml) of the same molecule?
**A.** Its value is 7%.
